Where two headings read alike, the source gives them in different places.
What was measured:
[1] = data from literature; ref [51]-[68]; cited from earlier work
in vitro = details: human
SARS-CoV-2-Nluc = test: microbe, parasite or virus in culture; type: cell-based
[2] = human exposures in the clinic, approved dosing schedules, ref [51]-[68], cited from earlier work; for Cmax: read-out: Exposure Cmax
[3] = Severe acute respiratory syndrome coronavirus 2, 48 h
[4] = Severe acute respiratory syndrome coronavirus 2, read-out: EC50 (µM) Replicate 1
[5] = Severe acute respiratory syndrome coronavirus 2, read-out: EC50 (µM) Replicate 2

SMILES | Plasma protein binding [1] | CC50 (in vitro; CC50) [µM] | CC50 (in vitro; CC50 (µM) Replicate 1) [µM] | CC50 (in vitro; CC50 (µM) Replicate 2) [µM] | Selectivity index (SI) = CC50/EC50 (SARS-CoV-2-Nluc) | EC50 (SARS-CoV-2-Nluc; [3]) [µM] | EC50 (SARS-CoV-2-Nluc; [4]) [µM] | EC50 (SARS-CoV-2-Nluc; [5]) [µM] | Exposure Cmin [2] [µM] | Cmax [2] [µM] | EC50 (SARS-CoV-2-Nluc; Severe acute respiratory syndrome coronavirus 2, read-out: projected protein adjusted potency (paEC50)) [µM]
CCC[C@@]1(CCc2ccccc2)CC(O)=C([C@H](CC)c2cccc(NS(=O)(=O)c3ccc(C(F)(F)F)cn3)c2)C(=O)O1 [Tipranavir] | 99.9% | 28.4 ± 0.5 | 28.8 | 28.1 | 3.3 | 8.65 ± 0.16 | 8.53 | 8.76 | 30.8 | 130 | 
O=C1Nc2ccc(Cl)cc2[C@@](C#CC2CC2)(C(F)(F)F)O1 [Efavirenz] | 99.5–99.8% | 37.6 ± 10.7 | 45.1 | 30 | <3.9 | > 9.6 | 9.6 | > 10 | 5.6 |  | 
Cc1cc(/C=C/C#N)cc(C)c1Nc1ccnc(Nc2ccc(C#N)cc2)n1 [Rilpivirine] | 99.7% | 14.6 ± 1.6 | 13.5 | 15.8 |  | 7.8 ± 1.04 | 7.06 | 8.53 | 0.30 | 0.83 | 
CC(C)OC(=O)[C@H](C)N[P@](=O)(CO[C@H](C)Cn1cnc2c(N)ncnc21)Oc1ccccc1 [Tenofovir alafenamide (TAF), Tenofovir alafenamide] | 80% | > 50 | > 50 | > 50 |  | > 10 | > 10 | > 10 |  | 0.4 | 
Nc1nc(=O)n([C@@H]2CS[C@H](CO)O2)cc1F [Emtricitabine (FTC), Emtricitabine] | 4% | > 50 | > 50 | > 50 |  | > 10 | > 10 | > 10 |  | 7.9 | 
Cc1c(O)cccc1C(=O)N[C@@H](CSc1ccccc1)[C@H](O)CN1C[C@H]2CCCC[C@H]2C[C@H]1C(=O)NC(C)(C)C [Nelfinavir] | >98% | 12 ± 1.3 | 11.1 | 13 | 15.7 | 0.77 ± 0.32 | 0.542 | 0.993 | 2.6 | 8.3 | ~30

— PMC7567097, “A nanoluciferase SARS-CoV-2 for rapid neutralization testing and screening of anti-infective drugs for COVID-19” (Nature Communications, 2020)
